Reference: patent publication US7960377B2 (priority 2008, dated 2011)
Like-named read-outs stand apart in the source and are kept apart here. Marks after values point to notes of the source that are not given here.

Key:
Assay in all cases: cell-based
[1] = target: human CB1 receptor (Homo sapiens, UniProt P21554)
[2] = target: human CB2 receptor (Homo sapiens, UniProt P34972); assay type: cell-based; details: for inverse agonist mark, human CB2 receptor: asterisk at the compound number
[3] = target: T1, rat CB2 receptor (Rattus norvegicus, UniProt Q9QZN9); assay type: cell-based; details: for inverse agonist mark, rat CB2 receptor: asterisk at the compound number
T1 sequence (Q9QZN9 1-360): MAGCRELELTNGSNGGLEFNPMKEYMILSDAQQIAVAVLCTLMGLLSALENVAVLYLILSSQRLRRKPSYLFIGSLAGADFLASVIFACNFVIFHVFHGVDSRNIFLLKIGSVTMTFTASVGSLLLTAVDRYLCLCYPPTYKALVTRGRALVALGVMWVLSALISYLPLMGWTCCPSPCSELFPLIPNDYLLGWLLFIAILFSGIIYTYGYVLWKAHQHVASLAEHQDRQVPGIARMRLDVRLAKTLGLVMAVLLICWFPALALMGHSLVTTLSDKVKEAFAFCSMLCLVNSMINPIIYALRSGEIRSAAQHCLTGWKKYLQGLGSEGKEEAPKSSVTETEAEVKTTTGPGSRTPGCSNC

[4] = change in intracellular cAMP, CHO-K1 hCB2 cells, class AR, read-out: EC50 values for human CB2 receptor

Sequence of human CB1 receptor (P21554 whole entry): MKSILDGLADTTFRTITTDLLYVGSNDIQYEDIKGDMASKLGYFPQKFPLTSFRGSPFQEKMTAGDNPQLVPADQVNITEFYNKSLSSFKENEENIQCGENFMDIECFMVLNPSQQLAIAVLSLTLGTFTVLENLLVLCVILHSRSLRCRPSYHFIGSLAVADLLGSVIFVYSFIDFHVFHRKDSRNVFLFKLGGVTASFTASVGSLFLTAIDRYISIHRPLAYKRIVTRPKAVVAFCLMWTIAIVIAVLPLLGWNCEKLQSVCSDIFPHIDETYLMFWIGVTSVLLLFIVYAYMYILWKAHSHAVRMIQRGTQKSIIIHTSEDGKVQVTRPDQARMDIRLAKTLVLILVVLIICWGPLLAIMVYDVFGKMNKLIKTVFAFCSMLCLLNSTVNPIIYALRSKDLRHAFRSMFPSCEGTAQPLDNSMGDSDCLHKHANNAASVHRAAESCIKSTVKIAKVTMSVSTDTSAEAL
Sequence of human CB2 receptor (P34972 whole entry): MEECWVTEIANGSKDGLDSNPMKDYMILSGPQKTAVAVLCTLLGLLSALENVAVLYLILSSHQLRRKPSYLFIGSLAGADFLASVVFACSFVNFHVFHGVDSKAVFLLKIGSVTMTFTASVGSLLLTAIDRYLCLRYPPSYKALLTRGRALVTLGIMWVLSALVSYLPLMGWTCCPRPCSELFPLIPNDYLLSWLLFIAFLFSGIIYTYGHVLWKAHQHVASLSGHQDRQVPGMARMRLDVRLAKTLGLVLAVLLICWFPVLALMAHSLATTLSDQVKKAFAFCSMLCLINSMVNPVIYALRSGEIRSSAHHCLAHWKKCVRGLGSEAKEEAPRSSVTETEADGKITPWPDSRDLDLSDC

Row | SMILES | EC50 [1] | EC50 [2, 4] | EC50 [3] | EC50 [2] | inverse agonist mark, rat CB2 receptor [3] | inverse agonist mark, human CB2 receptor [2] | EC50 ([3]; change in intracellular cAMP, CHO-K1 rCB2 cells, class AR, read-out: EC50 values for rat CB2 receptor)
1 | O=C(c1cnc2c(c1)N(S(=O)(=O)c1ccccc1)CCO2)N1CCOCC1 [Example 4, morpholino(1-(phenyl-sulfonyl)-2,3-dihydro-1H-pyrido[2,3-b][1,4]oxazin-7-yl)methanone] | > 30 µM | > 30 µM | > 30000 nM | – | – | – | –
2 | CNC(=O)[C@@H](NC(=O)c1cnc2c(c1)N(S(=O)(=O)c1ccccc1)CCO2)C(C)(C)C [Example 6, (S)-N-(3,3-dimethyl-1-(methylamino)-1-oxobutan-2-yl)-1-(phenyl-sulfonyl)-2,3-dihydro-1H-pyrido[2,3-b][1,4]oxazine-7-carboxamide] | > 30 µM | – | ≤ 30 nM | > 30 µM | 2, 3, 6*, 7, 8, 10, 11, 12, 15*, 20, 21, 22, 23, 24, 25, 26, 27, 33, 39, | – | –
3 | CNC(=O)[C@@H](NC(=O)c1cnc2c(c1)N(S(=O)(=O)c1ccc(F)cc1)CCO2)C(C)(C)C [Example 15, (S)-N-(3,3-dimethyl-1-(methylamino)-1-oxobutan-2-yl)-1-(4-fluorophenyl-sulfonyl)-2,3-dihydro-1H-pyrido [2,3-b][1,4]oxazine-7-carboxamide] | > 30 µM | – | ≤ 30 nM | – | 2, 3, 6*, 7, 8, 10, 11, 12, 15*, 20, 21, 22, 23, 24, 25, 26, 27, 33, 39, | 1, 5, 9, 12, 14, 15*, 28, 29, 34, 35, 36, 37, 41, 44, 49, 50, 51, 54, 56, | –
4 | CC(C)(C)N(CCCN)C(=O)c1cnc2c(c1)N(S(=O)(=O)c1ccc(C(F)(F)F)cc1)CCO2 [Example 45, N-(3-aminopropyl)-N-tert-butyl-1-(4-(trifluoromethyl)phenylsulf-onyl)-2,3-dihydro-1H-pyrido[2,3-b][1,4]oxazine-7-carboxamide] | > 30 µM | > 30 µM | > 30000 nM | – | – | – | –
5 | O=C(c1cnc2c(c1)N(S(=O)(=O)c1ccc(C(F)(F)F)cc1)CCO2)N1CCS(=O)(=O)CC1 [Example 52, 1′,1′-dioxide-thiomorpholino(1-(4-(trifluoromethyl)phenylsulf-onyl)-2,3-dihydro-1H-pyrido[2,3-b][1,4]oxazin-7-yl)methanone] | > 30 µM | > 30 µM | > 30000 nM | – | – | – | –
6 | CC(C)(C)NC(=O)c1cnc2c(c1)N(S(=O)(=O)c1ccc(Cl)c(Cl)c1)CCO2 [Example 55, N-tert-butyl-1-(3,4-dichlorophenylsulfonyl)-2,3-dihydro-1H-pyrido[2,3-b][1,4]oxazine-7-carboxamide] | > 30 µM | – | ≤ 30 nM | ≤ 0.03 µM | – | – | –
7 | CCC(C)(C)NC(=O)c1cnc2c(c1)N(S(=O)(=O)c1ccc(C(F)(F)F)cc1)CCO2 [Example 66, N-tert-pentyl-1-(4-(trifluoromethyl)phenylsulf-onyl)-2,3-dihydro-1H-pyrido[2,3-b][1,4]oxazine-7-carboxamide] | > 30 µM | – | ≤ 30 nM | ≤ 0.03 µM | – | – | –
8 | O=C(O)[C@H]1CCCCN1C(=O)c1cnc2c(c1)N(S(=O)(=O)c1ccc(C(F)(F)F)cc1)CCO2 [Example 78, (R)-1-(1-(4-(trifluoro-methyl)phenylsulfonyl)-2,3-dihydro-1H-pyrido-[2,3-b][1,4]oxazine-7-carbonyl)piperidine-2-carboxylic acid] | > 30 µM | > 30 µM | > 30000 nM | – | – | – | –
9 | CC(C)(C)NC(=O)c1cnc2c(c1)N(S(=O)(=O)c1ccc(Cl)s1)CCO2 [Example 94, N-tert-butyl-1-(5-chlorothiophen-2-ylsulfonyl)-2,3-dihydro-1H-pyrido[2,3-b][1,4]oxazine-7-carboxamide] | > 30 µM | > 30 µM | > 30000 nM | – | – | – | –
10 | CS(=O)(=O)N1CCN(C(=O)c2cnc3c(c2)N(S(=O)(=O)c2ccc(Cl)c(Cl)c2)CCO3)CC1 [Example 116, (1-(3,4-dichloro-phenylsulfonyl)-2,3-dihydro-1H-pyrido[2,3-b][1,4]oxazin-7-yl)(4-(methylsulfonyl)piperazin-1-yl)methanone] | > 30 µM | > 30 µM | > 30000 nM | – | – | – | –
11 | CN(C)S(=O)(=O)N1CCN(C(=O)c2cnc3c(c2)N(S(=O)(=O)c2ccc(Cl)c(Cl)c2)CCO3)CC1 [Example 119, 4-(1-(3,4-dichlorophenylsulfonyl)-2,3-dihydro-1H-pyrido [2,3-b][1,4]oxazine-7-carbonyl)-N,N-dimethyl piperazine-1-sulfonamide] | > 30 µM | > 30 µM | > 30000 nM | – | – | – | –
12 | O=C(N[C@@H]1CCCC[C@H]1O)c1cnc2c(c1)N(S(=O)(=O)c1ccc(Cl)c(Cl)c1)CCO2 [Example 135, 1-(3,4-dichlorophenyl-sulfonyl)-N-((1R,2R)-2-hydroxycyclohexyl)-2,3-dihydro-1H-pyrido[2,3-b][1,4]oxazine-7-carboxamide] | > 30 µM | – | ≤ 30 nM | > 30 µM | – | – | –
13 | CC(C)(C)c1cc(NC(=O)c2cnc3c(c2)N(S(=O)(=O)N2CCC(C(F)(F)F)CC2)CCO3)on1 [Example 153, N-(3-tert-butylisoxazol-5-yl)-1-(4-(trifluoromethyl)piperidin-1-ylsulfonyl)-2,3-dihydro-1H-pyrido[2,3-b][1,4]oxazine-7-carboxamide] | ≤ 0.3 µM | – | ≤ 30 nM | > 30 µM | 146, 148, 149, 150, 151, 152, 153*, 154*, 155, 156, 157, 163, 164, | – | –
14 | CC(C)(C)c1cc(NC(=O)c2cnc3c(c2)N(S(=O)(=O)N2CCC(C(F)(F)F)CC2)CCO3)no1 [Example 154, N-(5-tert-butylisoxazol-3-yl)-1-(4-(trifluoromethyl)piperidin-1-ylsulfonyl)-2,3-dihydro-1H-pyrido[2,3-b][1,4]oxazine-7-carboxamide] | – | – | ≤ 30 nM | – | 146, 148, 149, 150, 151, 152, 153*, 154*, 155, 156, 157, 163, 164, | 121, 124, 131, 136, 137, 138, 139, 146, 150, 152, 154*, 155, 157, | –
15 | CC(C)(C)NC(=O)c1cnc2c(c1)N(S(=O)(=O)N1CCC(F)(F)CC1)CCO2 [Example 156, N-tert-butyl-1-(4,4-difluoropiperidin-1-ylsulfonyl)-2,3-dihydro-1H-pyrido[2,3-b][1,4]oxazine-7-carboxamide] | – | – | ≤ 30 nM | ≤ 0.03 µM | – | – | –
16 | CC(C)(CO)NC(=O)c1cnc2c(c1)N(S(=O)(=O)N1CCC(c3ccccc3)CC1)CCO2 [Example 160, N-(1-hydroxy-2-methylpropan-2-yl)-1-(4-phenylpiperidin-1-ylsulfonyl)-2,3-dihydro-1H-pyrido[2,3-b][1,4]oxazine-7-carboxamide] | > 30 µM | – | > 30000 nM | > 30 µM | – | – | –
17 | CC(C)(C)c1cc(NC(=O)c2cnc3c(c2)N(S(=O)(=O)N2CCC(c4ccccc4)CC2)CCO3)no1 [Example 162, N-(5-tert-butylisoxazol-3-yl)-1-(4-phenylpiperidin-1-ylsulfonyl)-2,3-dihydro-1H-pyrido[2,3-b][1,4]oxazine-7-carboxamide] | > 30 µM | – | – | – | 108, 114, 117, 122, 126, 128, 129, 130, 141, 147, 162*, 165*, 179, | 128, 129, 130, 132, 133, 140, 141, 142, 143, 147, 148, 149, 162*, | –
18 | CC(C)(C)c1cc(NC(=O)c2cnc3c(c2)N(S(=O)(=O)N2CCC(F)(F)C2)CCO3)no1 [Example 165, N-(5-tert-butylisoxazol-3-yl)-1-(3,3-difluoro-pyrrolidin-1-ylsulfonyl)-2,3-dihydro-1H-pyrido-[2,3-b][1,4]oxazine-7-carboxamide] | – | – | – | > 30 µM | 108, 114, 117, 122, 126, 128, 129, 130, 141, 147, 162*, 165*, 179, | – | –
19 | CCC(C)(C)NC(=O)c1cnc2c(c1)N(S(=O)(=O)N1CCC(F)CC1)CCO2 [Example 167, 1-(4-fluoropiperidin-1-ylsulfonyl)-N-tert-pentyl-2,3-dihydro-1H-pyrido[2,3-b][1,4]oxazine-7-carboxamide] | > 30 µM | – | ≤ 30 nM | ≤ 0.03 µM | – | – | –
20 | CC(C)(C)NC(=O)c1cnc2c(c1)N(S(=O)(=O)N1CCC(Cl)CC1)CCO2 [Example 184, N-tert-butyl-1-(4-chloropiperidin-1-ylsulfonyl)-2,3-dihydro-1H-pyrido[2,3-b][1,4]oxazine-7-carboxamide] | – | – | ≤ 30 nM | > 30 µM | – | – | –
21 | CCC(C)(C)NC(=O)c1cnc2c(c1)N(S(=O)(=O)N1CCC(Cl)CC1)CCO2 [Example 185, 1-(4-chloropiperidin-1-ylsulfonyl)-N-tert-pentyl-2,3-dihydro-1H-pyrido[2,3-b][1,4]oxazine-7-carboxamide] | – | – | ≤ 30 nM | > 30 µM | – | – | –
22 | CC(C)(CO)CNC(=O)c1cnc2c(c1)N(S(=O)(=O)N1CCC(Cl)CC1)CCO2 [Example 187, 1-(4-chloropiperidin-1-ylsulfonyl)-N-(3-hydroxy-2,2-dimethylpropyl)-2,3-dihydro-1H-pyrido[2,3-b][1,4]oxazine-7-carboxamide] | – | – | ≤ 30 nM | > 30 µM | – | – | –
23 | CC(C)(CO)CNC(=O)c1cnc2c(c1)N(S(=O)(=O)N1CC(F)(F)C1)CCO2 [Example 196, 1-(3,3-difluoroazetidin-1-ylsulfonyl)-N-(3-hydroxy-2,2-dimethylpropyl)-2,3-dihydro-1H-pyrido[2,3-b][1,4]oxazine-7-carboxamide] | – | – | ≤ 30 nM | > 30 µM | – | – | –
24 | O=C(O)CC1COCCN1C(=O)c1cnc2c(c1)N(S(=O)(=O)c1ccc(C(F)(F)F)cc1)CCO2 (stereo not shown) [Example 207] | – | > 30 µM | – | – | – | – | > 30000 nM
25 | CC(C)(C)c1nnc(-c2cnc3c(c2)N(S(=O)(=O)c2ccc(F)cc2)CCO3)o1 [Example 212, 7-(5-tert-butyl-1,3,4-oxadiazol-2-yl)-1-(4-fluorophenylsulfonyl)-2,3-dihydro-1H-pyrido[2,3-b][1,4]oxazine] | – | – | ≤ 30 nM | ≤ 0.03 µM | – | – | –
